# Results published in PubChem BioAssay (NCI).
#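 These data come from cells grown in 96-well plates and exposed to compound for 48 hours at five concentrations. TGI marks complete inhibition of growth.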
# Experiments:
# Experiment in all cases: NCI-60 cell line screen, 48 h
# [1] = test system: NCI-H522 lung
# [2] = test system: CAKI-1 renal
# [3] = test system: SK-MEL-2 melanoma
# [4] = test system: CCRF-CEM leukemia
# [5] = test system: LXFL 529 NSCLC
# [6] = test system: UACC-62 melanoma
# [7] = test system: COLO 205 colon
# [8] = test system: 786-0 renal
# [9] = test system: LOX IMVI melanoma
# [10] = test system: U251 CNS
# [11] = test system: XF 498 CNS
# [12] = test system: SF-539 CNS
# [13] = test system: RPMI-8226 leukemia
# [14] = test system: RXF 393 renal
# [15] = test system: SNB-78 CNS
# [16] = test system: KM20L2 colon
# [17] = test system: A498 renal
# [18] = test system: RXF-631 renal
# [19] = test system: ACHN renal
# [20] = test system: IGROV1 ovarian
# [21] = test system: NCI-H226 lung
# [22] = test system: HT29 colon
# [23] = test system: OVCAR-8 ovarian
# [24] = test system: UACC-257 melanoma
# [25] = test system: EKVX NSCLC
# [26] = test system: HL-60(TB) leukemia
# [27] = test system: NCI-H460 lung
# [28] = test system: UO-31 renal
# [29] = test system: MOLT-4 leukemia
# [30] = test system: OVCAR-5 ovarian
# [31] = test system: SN12C renal
# [32] = test system: HOP-62 NSCLC
# [33] = test system: OVCAR-4 ovarian
# [34] = test system: HCT-15 colon
# [35] = test system: DLD-1 colon
# [36] = test system: SW-620 colon
# [37] = test system: SR leukemia
# [38] = test system: K-562 leukemia
# [39] = test system: OVCAR-3 ovarian
# [40] = test system: KM12 colon
# [41] = test system: HOP-92 NSCLC
# [42] = test system: M19-MEL melanoma
# [43] = test system: SF-295 CNS
# [44] = test system: HCC-2998 colon
# [45] = test system: SF-268 CNS
# [46] = test system: SK-MEL-28 melanoma
# [47] = test system: SK-MEL-5 melanoma
# [48] = test system: TK-10 renal
# [49] = test system: M14 melanoma
# [50] = test system: SNB-19 CNS
# [51] = test system: SK-OV-3 ovarian
# [52] = test system: A549 NSCLC
# [53] = test system: MALME-3M melanoma
# [54] = test system: HOP-18 NSCLC
# [55] = test system: DMS 273 small cell lung
# [56] = test system: HCT-116 colon
# [57] = test system: SNB-75 CNS
# [58] = test system: NCI-H23 lung
# [59] = test system: DMS 114 small cell lung
structure (smiles),measurement,setting,value
CN(C)c1cccc(-c2cc(=O)c3cc4c(cc3[nH]2)OCO4)c1,TGI,[1],0.275 µM
same,TGI,[2],> 100 µM
same,TGI,[3],> 100 µM
same,TGI,[4],> 100 µM
same,TGI,[5],> 48.4 µM
same,TGI,[6],> 100 µM
same,TGI,[7],0.823 µM
same,TGI,[8],30.1 µM
same,TGI,[9],> 100 µM
same,TGI,[10],3.95 µM
same,TGI,[11],7.24 µM
same,TGI,[12],0.756 µM
same,TGI,[13],> 100 µM
same,TGI,[14],0.859 µM
same,TGI,[15],> 100 µM
same,TGI,[16],0.515 µM
same,TGI,[17],4.58 µM
same,TGI,[18],> 100 µM
same,TGI,[19],> 37 µM
same,TGI,[20],> 47.5 µM
same,TGI,[21],1.32 µM
same,TGI,[22],> 100 µM
same,TGI,[23],3.65 µM
same,TGI,[24],> 100 µM
same,TGI,[25],> 100 µM
same,TGI,[26],2.23 µM
same,TGI,[27],0.987 µM
same,TGI,[28],> 100 µM
same,TGI,[29],> 100 µM
same,TGI,[30],0.92 µM
same,TGI,[31],> 100 µM
same,TGI,[32],> 73.9 µM
same,TGI,[33],4.59 µM
same,TGI,[34],> 90 µM
same,TGI,[35],> 100 µM
same,TGI,[36],> 100 µM
same,TGI,[37],> 100 µM
same,TGI,[38],> 100 µM
same,TGI,[39],0.0575 µM
same,TGI,[40],1.46 µM
same,TGI,[41],> 100 µM
same,TGI,[42],> 100 µM
same,TGI,[43],0.693 µM
same,TGI,[44],0.567 µM
same,TGI,[45],31.4 µM
same,TGI,[46],> 100 µM
same,TGI,[47],2.83 µM
same,TGI,[48],> 100 µM
same,TGI,[49],0.461 µM
same,TGI,[50],> 57.6 µM
same,TGI,[51],0.932 µM
COc1ccc(C2c3cc4c(cc3OC(O)(CO)C2C(=O)O)OCO4)c(OC)c1OC (stereo not given) (tested in a mixture with another compound),TGI,[2],> 100 µM
same,TGI,[3],> 100 µM
same,TGI,[4],> 100 µM
same,TGI,[52],> 100 µM
same,TGI,[53],> 100 µM
same,TGI,[6],> 100 µM
same,TGI,[7],> 100 µM
same,TGI,[8],> 100 µM
same,TGI,[9],> 100 µM
same,TGI,[10],> 100 µM
same,TGI,[11],> 100 µM
same,TGI,[12],> 100 µM
same,TGI,[13],> 100 µM
same,TGI,[14],> 100 µM
same,TGI,[15],> 100 µM
same,TGI,[16],> 100 µM
same,TGI,[54],> 100 µM
same,TGI,[19],> 100 µM
same,TGI,[20],> 100 µM
same,TGI,[22],> 100 µM
same,TGI,[23],> 100 µM
same,TGI,[24],> 100 µM
same,TGI,[25],> 100 µM
same,TGI,[26],> 100 µM
same,TGI,[27],> 100 µM
same,TGI,[28],> 100 µM
same,TGI,[29],> 100 µM
same,TGI,[55],> 100 µM
same,TGI,[56],> 100 µM
same,TGI,[31],> 100 µM
same,TGI,[32],> 100 µM
same,TGI,[33],> 100 µM
same,TGI,[34],> 100 µM
same,TGI,[35],> 100 µM
same,TGI,[36],> 100 µM
same,TGI,[38],> 100 µM
same,TGI,[57],> 100 µM
same,TGI,[39],> 100 µM
same,TGI,[41],> 100 µM
same,TGI,[42],> 100 µM
same,TGI,[43],> 100 µM
same,TGI,[46],> 100 µM
same,TGI,[58],> 100 µM
same,TGI,[59],> 100 µM
same,TGI,[47],> 100 µM
same,TGI,[48],> 100 µM
same,TGI,[49],> 100 µM
same,TGI,[50],> 100 µM
same,TGI,[51],> 100 µM
CC(C)(C)c1cc(N=NC(=S)NCc2ccccc2)cc(C(C)(C)C)c1O,TGI,[3],> 100 µM
same,TGI,[4],> 100 µM
same,TGI,[52],> 100 µM
same,TGI,[5],> 100 µM
same,TGI,[53],> 100 µM
same,TGI,[6],> 100 µM
same,TGI,[7],> 100 µM
same,TGI,[8],> 100 µM
same,TGI,[9],> 100 µM
same,TGI,[10],> 100 µM
same,TGI,[11],> 100 µM
same,TGI,[12],> 100 µM
same,TGI,[13],> 100 µM
same,TGI,[14],> 100 µM
same,TGI,[16],> 100 µM
same,TGI,[17],> 100 µM
same,TGI,[18],> 100 µM
same,TGI,[19],> 100 µM
same,TGI,[20],> 100 µM
same,TGI,[21],> 100 µM
same,TGI,[22],> 100 µM
same,TGI,[23],> 100 µM
same,TGI,[24],> 100 µM
same,TGI,[25],> 100 µM
same,TGI,[26],> 100 µM
same,TGI,[27],> 100 µM
same,TGI,[28],> 100 µM
same,TGI,[29],> 100 µM
same,TGI,[55],> 100 µM
same,TGI,[56],> 100 µM
same,TGI,[31],> 100 µM
same,TGI,[32],> 100 µM
same,TGI,[33],> 100 µM
same,TGI,[34],> 100 µM
same,TGI,[35],> 100 µM
same,TGI,[36],> 100 µM
same,TGI,[37],> 100 µM
same,TGI,[38],> 100 µM
same,TGI,[57],99.6 µM
same,TGI,[39],> 100 µM
same,TGI,[42],> 100 µM
same,TGI,[43],> 100 µM
same,TGI,[44],> 100 µM
same,TGI,[45],> 100 µM
same,TGI,[46],> 100 µM
same,TGI,[58],> 100 µM
same,TGI,[59],> 100 µM
same,TGI,[47],> 100 µM
same,TGI,[48],> 100 µM
same,TGI,[49],> 100 µM
same,TGI,[50],> 100 µM
NC(=S)N/N=C1\C(=O)N(c2cccc([N+](=O)[O-])c2)C(=O)C1C(=O)Nc1cccc([N+](=O)[O-])c1 (stereo not given),TGI,[1],> 100 µM
same,TGI,[2],> 100 µM
same,TGI,[3],> 100 µM
same,TGI,[4],> 100 µM
same,TGI,[52],> 100 µM
same,TGI,[5],> 100 µM
same,TGI,[53],> 100 µM
same,TGI,[6],> 100 µM
same,TGI,[7],> 100 µM
same,TGI,[8],> 100 µM
same,TGI,[9],> 100 µM
same,TGI,[10],> 100 µM
same,TGI,[12],> 100 µM
same,TGI,[13],> 100 µM
same,TGI,[14],> 100 µM
same,TGI,[15],> 100 µM
same,TGI,[16],> 100 µM
same,TGI,[17],> 100 µM
same,TGI,[54],> 100 µM
same,TGI,[19],> 100 µM
same,TGI,[20],> 100 µM
same,TGI,[21],> 100 µM
same,TGI,[22],> 100 µM
same,TGI,[23],> 100 µM
same,TGI,[24],> 100 µM
same,TGI,[25],> 100 µM
same,TGI,[26],> 100 µM
same,TGI,[28],> 100 µM
same,TGI,[29],> 100 µM
same,TGI,[30],> 100 µM
same,TGI,[55],> 100 µM
same,TGI,[56],> 100 µM
same,TGI,[31],> 100 µM
same,TGI,[32],> 100 µM
same,TGI,[33],> 100 µM
same,TGI,[34],> 100 µM
same,TGI,[35],> 100 µM
same,TGI,[36],> 100 µM
same,TGI,[38],> 100 µM
same,TGI,[57],> 100 µM
same,TGI,[39],> 100 µM
same,TGI,[41],> 100 µM
same,TGI,[42],> 100 µM
same,TGI,[43],> 100 µM
same,TGI,[44],> 100 µM
same,TGI,[45],> 100 µM
same,TGI,[46],> 100 µM
same,TGI,[58],> 100 µM
same,TGI,[59],> 100 µM
same,TGI,[47],> 100 µM
same,TGI,[48],> 100 µM
same,TGI,[49],> 100 µM
same,TGI,[50],> 100 µM
same,TGI,[51],> 100 µM
